Results taken from patent US8013006B2.
pIC50: −log10 of the molar value. Where two headings read alike, the source gives them in different places.

System: HCV replicon
Test: microbe, parasite or virus in culture
Assay type: cell-based
Conditions: read-out: Replicon IC5Os
[1] = Replicon IC50 values are determined by firefly luciferase signal, bicistronic replicon, 2 days

`CCn1c(-c2ccc(N)cc2)c(C#N)c2ccc(OCCCl)cc21` [Compound 476] showed a pIC50 [1] of 5.70 to 6.30.

`CCn1c(-c2ccc(NS(C)(=O)=O)cc2)c(C#N)c2ccc(OCCN3CCCCC3)cc21` [Compound 479] was tested, and the pIC50 [1] was under 5.70.

`CCn1c(-c2ccc(NS(C)(=O)=O)cc2)c(C#N)c2ccc(OCCN3CCN(C)CC3)cc21` [Compound 481] showed a pIC50 [1] of under 5.70.

In the case of `CCn1c(-c2ccc(NS(C)(=O)=O)cc2)c(C#N)c2ccc(OCCN(C)CCOC)cc21` [Compound 482], the pIC50 [1] was 5.70 to 6.30.

Molecule `CCn1c(-c2cccc(N)c2)c(C#N)c2cc(OC)ccc21` [Compound 483] has a pIC50 [1] of under 5.70.

Work on `CCn1c(-c2nc3ccccc3s2)c(C#N)c2ccc(OC)cc21` [Compound 484] yielded a pIC50 [1] of under 5.70.

`CCOC(=O)Nc1cccc(-c2c(C#N)c3cc(-c4cccc(OC)c4)ccc3n2CC)c1` [Compound 485] showed a pIC50 [1] of under 5.70.

With `CCCOC(=O)Nc1cccc(-c2c(C#N)c3cc(-c4cccc(OC)c4)ccc3n2CC)c1` [Compound 486] the pIC50 [1] was 5.70 to 6.30.

In the case of `CCn1c(-c2ccc(NS(C)(=O)=O)cc2)c(C#N)c2cc(-c3cccc(OC)c3)ccc21` [Compound 487], the pIC50 [1] was 5.70 to 6.30.

`CCn1c(-c2ccc(NS(=O)(=O)CC)cc2)c(C#N)c2cc(-c3cccc(OC)c3)ccc21` [Compound 488] was tested, and the pIC50 [1] was over 6.30.

Work on `CCn1c(-c2cccc(NC(=O)OCC3CCCC3)c2)c(C#N)c2ccc(OC)cc21` [Compound 489] yielded a pIC50 [1] of 5.70 to 6.30.

For `CCn1c(-c2cccc(NC(=O)OC3CCCC3)c2)c(C#N)c2ccc(OC)cc21` [Compound 490], the pIC50 [1] was 5.70 to 6.30.

Molecule `CCOC(=O)Nc1cccc(-c2c(C#N)c3ccc(OCCn4cncn4)cc3n2CC)c1` [Compound 491] has a pIC50 [1] of under 5.70.

Molecule `CCOC(=O)Nc1cccc(-c2c(C#N)c3ccc(OCCN4CCOCC4)cc3n2CC)c1` [Compound 492] has a pIC50 (Hepatitis C virus, 48 h) of 5.70 to 6.30.

`CCOC(=O)Nc1cccc(-c2c(C#N)c3ccc(OCCCN4CCOCC4)cc3n2CC)c1` [Compound 493] gave a pIC50 (Hepatitis C virus, 48 h) of over 6.30.

`CCOC(=O)Nc1cccc(-c2[nH]c3cc(OC)ccc3c2C#N)c1` [Compound 494] was tested, and the pIC50 [1] was under 5.70.

For `CCn1c(-c2ccc(NS(C)(=O)=O)cc2)c(C#N)c2ccc(OCCn3ccnc3)cc21` [Compound 496], the pIC50 [1] was 5.70 to 6.30.

`CCn1c(-c2ccc(NS(C)(=O)=O)cc2)c(C#N)c2ccc(OCCn3cncn3)cc21` [Compound 497] showed a pIC50 [1] of under 5.70.

`CCn1c(-c2cccc(NC(=O)OCc3ccc(C(C)C)cc3)c2)c(C#N)c2ccc(OC)cc21` [Compound 500] gave a pIC50 [1] of under 5.70.

For `CCn1c(-c2cccc(NC(=O)OC3CCOC3)c2)c(C#N)c2ccc(OC)cc21` (stereo not shown) [Compound 502], the pIC50 [1] was under 5.70.

`CCn1c(-c2cccc(NC(=O)O[C@@H]3CCOC3)c2)c(C#N)c2ccc(OC)cc21` [Compound 503] was tested, and the pIC50 [1] was under 5.70.

`CCOC(=O)Nc1cccc(-c2c(C#N)c3ccc(OCCCl)cc3n2CC)c1` [Compound 504] was tested, and the pIC50 [1] was under 5.70.

Molecule `CCn1c(-c2cccc(NS(=O)(=O)CC)c2)c(C#N)c2cc(OC)ccc21` [Compound 505] has a pIC50 [1] of under 5.70.

`CCOC(=O)Nc1cccc(-c2c(C#N)c3cc(OC)ccc3n2CC)c1` [Compound 506] showed a pIC50 [1] of under 5.70.

`CCn1c(-c2cccc(NC(=O)OC(C)C)c2)c(C#N)c2cc(OC)ccc21` [Compound 507] gave a pIC50 [1] of under 5.70.

`CCCOC(=O)Nc1cccc(-c2c(C#N)c3cc(OC)ccc3n2CC)c1` [Compound 508] was tested, and the pIC50 [1] was under 5.70.

`CCn1c(-c2cccc(NC(=O)OCCCCl)c2)c(C#N)c2cc(OC)ccc21` [Compound 509] showed a pIC50 [1] of under 5.70.

With `CCCNC(=O)Nc1cccc(-c2c(C#N)c3cc(OC)ccc3n2CC)c1` [Compound 511] the pIC50 [1] was under 5.70.

`CCOC(=O)NC(=O)Nc1cccc(-c2c(C#N)c3cc(OC)ccc3n2CC)c1` [Compound 512] was tested, and the pIC50 [1] was under 5.70.

`CCn1c(-c2cccc(NC(=O)Nc3cccc(C(F)(F)F)c3)c2)c(C#N)c2cc(OC)ccc21` [Compound 513] showed a pIC50 [1] of under 5.70.

In the case of `CCn1c(NC)c(C#N)c2ccc(C(F)(F)F)cc21` [Compound 514], the pIC50 [1] was under 5.70.

`CCS(=O)(=O)Nc1ccc(-c2cc3ccc(OC(F)F)cc3n2C)cc1` [Compound 515] was tested, and the pIC50 [1] was 5.70 to 6.30.

Molecule `CCS(=O)(=O)Nc1ccc(-c2cc3ccc(OC(F)F)cc3n2C(C)C)cc1` [Compound 517] has a pIC50 [1] of under 5.70.

In the case of `CCCn1c(-c2ccc(NS(=O)(=O)CC)cc2)c(C#N)c2ccc(OC(F)F)cc21` [Compound 522], the pIC50 [1] was over 6.30.

In the case of `CCS(=O)(=O)Nc1ccc(-c2c(C#N)c3ccc(OC(F)F)cc3n2C(C)C)cc1` [Compound 524], the pIC50 [1] was over 6.30.

`CCOC(=O)Nc1cccc(-c2c(C#N)c3ccc(OCCCn4ccnc4)cc3n2CC)c1` [Compound 525] gave a pIC50 (Hepatitis C virus, 48 h) of 5.70 to 6.30.

Work on `CCOC(=O)Nc1cccc(-c2c(C#N)c3ccc(OCCCN4CCN(C)CC4)cc3n2CC)c1` [Compound 526] yielded a pIC50 (Hepatitis C virus, 48 h) of over 6.30.

For `CCOC(=O)Nc1cccc(-c2c(C#N)c3ccc(OCCCN4CCSCC4)cc3n2CC)c1` [Compound 527], the pIC50 [1] was 5.70 to 6.30.

For `CCOC(=O)Nc1cccc(-c2c(C#N)c3ccc(OCCCN4CCCCC4)cc3n2CC)c1` [Compound 528], the pIC50 [1] was 5.70 to 6.30.

Molecule `CCOC(=O)Nc1cccc(-c2c(C#N)c3ccc(OCCCn4ccnn4)cc3n2CC)c1` [Compound 529] has a pIC50 [1] of 5.70 to 6.30.

`CCOC(=O)Nc1cccc(-c2c(C#N)c3ccc(OCCCN(C)CCOC)cc3n2CC)c1` [Compound 531] showed a pIC50 (Hepatitis C virus, 48 h) of 5.70 to 6.30.

`CCOC(=O)Nc1ccc(-c2c(C#N)c3ccc(OCCCn4ccnc4)cc3n2CC)cc1` [Compound 532] gave a pIC50 (Hepatitis C virus, 48 h) of 5.70 to 6.30.

Work on `CCOC(=O)Nc1ccc(-c2c(C#N)c3ccc(OCCCN4CCN(C)CC4)cc3n2CC)cc1` [Compound 533] yielded a pIC50 (Hepatitis C virus, 48 h) of 5.70 to 6.30.

`CCOC(=O)Nc1ccc(-c2c(C#N)c3ccc(OCCCN4CCSCC4)cc3n2CC)cc1` [Compound 534] showed a pIC50 (Hepatitis C virus, 48 h) of over 6.30.

For `CCOC(=O)Nc1ccc(-c2c(C#N)c3ccc(OCCCN4CCCCC4)cc3n2CC)cc1` [Compound 535], the pIC50 (Hepatitis C virus, 48 h) was over 6.30.

Work on `CCOC(=O)Nc1ccc(-c2c(C#N)c3ccc(OCCCn4ccnn4)cc3n2CC)cc1` [Compound 536] yielded a pIC50 (Hepatitis C virus, 48 h) of 5.70 to 6.30.

With `CCOC(=O)Nc1ccc(-c2c(C#N)c3ccc(OCCCN4CCCC4)cc3n2CC)cc1` [Compound 537] the pIC50 (Hepatitis C virus, 48 h) was over 6.30.

`CCOC(=O)Nc1ccc(-c2c(C#N)c3ccc(OCCCn4cncn4)cc3n2CC)cc1` [Compound 538] showed a pIC50 (Hepatitis C virus, 48 h) of 5.70 to 6.30.

Work on `CCOC(=O)Nc1ccc(-c2c(C#N)c3ccc(OCCCN4CCOCC4)cc3n2CC)cc1` [Compound 539] yielded a pIC50 (Hepatitis C virus, 48 h) of over 6.30.

`CCn1c(-c2cccc(NS(=O)(=O)NC)c2)c(C#N)c2ccc(OC)cc21` [Compound 540] showed a pIC50 [1] of 5.70 to 6.30.

`CCNS(=O)(=O)Nc1cccc(-c2c(C#N)c3ccc(OC)cc3n2CC)c1` [Compound 541] showed a pIC50 [1] of under 5.70.

`CCCOC(=O)Nc1ccc(-c2c(C#N)c3ccc(OCCF)cc3n2CC)cc1` [Compound 547] gave a pIC50 [1] of over 6.30.

For `COc1ccc2c(C#N)c(-c3cccc(NC(=O)OCCCl)c3)n(C(C)C)c2c1` [Compound 553], the pIC50 [1] was under 5.70.

Work on `C#CCOC(=O)Nc1cccc(-c2c(C#N)c3ccc(OC)cc3n2C(C)C)c1` [Compound 554] yielded a pIC50 [1] of under 5.70.

Molecule `COCCOC(=O)Nc1cccc(-c2c(C#N)c3ccc(OC)cc3n2C(C)C)c1` [Compound 555] has a pIC50 [1] of under 5.70.

In the case of `COc1ccc2c(C#N)c(-c3cccc(NC(=O)OCc4ccccc4)c3)n(C(C)C)c2c1` [Compound 556], the pIC50 [1] was under 5.70.

Molecule `COc1ccc(OC(=O)Nc2cccc(-c3c(C#N)c4ccc(OC)cc4n3C(C)C)c2)cc1` [Compound 557] has a pIC50 [1] of 5.70 to 6.30.

`CCn1c(-c2cccc(NC(=O)CCl)c2)c(C#N)c2ccc(C(F)(F)F)cc21` [Compound 558] showed a pIC50 [1] of 5.70 to 6.30.

`CCC(=O)Nc1cccc(-c2c(C#N)c3ccc(C(F)(F)F)cc3n2CC)c1` [Compound 559] was tested, and the pIC50 [1] was under 5.70.

`CCn1c(-c2cccc(NC(=O)c3ccccc3)c2)c(C#N)c2ccc(C(F)(F)F)cc21` [Compound 560] was tested, and the pIC50 [1] was under 5.70.

In the case of `CCn1c(-c2cccc(NC(=O)C3CC3)c2)c(C#N)c2ccc(C(F)(F)F)cc21` [Compound 561], the pIC50 [1] was under 5.70.

In the case of `C=CS(=O)(=O)Nc1cccc(-c2c(C#N)c3ccc(C(F)(F)F)cc3n2CC)c1` [Compound 562], the pIC50 (Hepatitis C virus, 48 h) was over 6.30.

With `CCn1c(-c2ccc(C(=O)NCCNC)cc2)c(C#N)c2ccc(OC)cc21` [Compound 564] the pIC50 [1] was 5.70 to 6.30.

`CCn1c(-c2ccc(NC(C)=O)cc2)c(C#N)c2ccccc21` [Compound 565] was tested, and the pIC50 [1] was under 5.70.

`CCn1c(-c2ccc(NC(=O)COC)cc2)c(C#N)c2ccccc21` [Compound 566] was tested, and the pIC50 [1] was under 5.70.

`CCn1c(-c2ccc(C(N)=O)cc2)c(C#N)c2cc(OC)ccc21` [Compound 568] gave a pIC50 [1] of under 5.70.

With `CCNC(=O)c1ccc(-c2c(C#N)c3cc(OC)ccc3n2CC)cc1` [Compound 569] the pIC50 [1] was 5.70 to 6.30.

`CCn1c(-c2ccc(C(=O)NC3CC3)cc2)c(C#N)c2cc(OC)ccc21` [Compound 571] was tested, and the pIC50 [1] was 5.70 to 6.30.

With `CCn1c(-c2ccc(C(=O)NCCOC)cc2)c(C#N)c2cc(OC)ccc21` [Compound 572] the pIC50 [1] was 5.70 to 6.30.

Molecule `CCn1c(-c2ccc(C(=O)N3CCCN(C)CC3)cc2)c(C#N)c2cc(OC)ccc21` [Compound 573] has a pIC50 [1] of under 5.70.

With `CCN(CC)S(=O)(=O)Nc1cccc(-c2c(C#N)c3ccc(OC)cc3n2CC)c1` [Compound 574] the pIC50 [1] was under 5.70.

`CCS(=O)(=O)Nc1ccc(-c2cc3cc(OC)ccc3n2C)cc1` [Compound 575] showed a pIC50 [1] of 5.70 to 6.30.

With `CCn1c(-c2cccc(NS(=O)(=O)N3CCCC3)c2)c(C#N)c2ccc(OC)cc21` [Compound 576] the pIC50 [1] was under 5.70.

`CCS(=O)(=O)Nc1ccc(-c2cc3c(OC)cccc3n2C)cc1` [Compound 577] was tested, and the pIC50 [1] was 5.70 to 6.30.

`CCn1c(-c2ccc3occc3c2)c(C#N)c2ccc(OC)cc21` [Compound 578] was tested, and the pIC50 [1] was 5.70 to 6.30.

In the case of `CCn1c(-c2cccc(NC(=O)OC)c2)c(C#N)c2ccc(OC(C)C)cc21` [Compound 581], the pIC50 (Hepatitis C virus, 48 h) was 5.70 to 6.30.

`CCOC(=O)Nc1cccc(-c2c(C#N)c3ccc(OC(C)C)cc3n2CC)c1` [Compound 582] showed a pIC50 (Hepatitis C virus, 48 h) of 5.70 to 6.30.

Molecule `CCn1c(-c2cccc(NC(=O)OCCF)c2)c(C#N)c2ccc(OC(C)C)cc21` [Compound 583] has a pIC50 [1] of 5.70 to 6.30.

With `CCn1c(-c2cccc(NC(=O)OCCCl)c2)c(C#N)c2ccc(OC(C)C)cc21` [Compound 584] the pIC50 [1] was under 5.70.

With `CCCOC(=O)Nc1cccc(-c2c(C#N)c3ccc(OC(C)C)cc3n2CC)c1` [Compound 585] the pIC50 (Hepatitis C virus, 48 h) was 5.70 to 6.30.

`CCn1c(-c2cccc(NC(=O)OCCCCl)c2)c(C#N)c2ccc(OC(C)C)cc21` [Compound 586] was tested, and the pIC50 [1] was 5.70 to 6.30.

`CCn1c(-c2cccc(NC(=O)OC(C)C)c2)c(C#N)c2ccc(OC(C)C)cc21` [Compound 587] gave a pIC50 [1] of 5.70 to 6.30.
